Assay results: patent US4906624A, “6-(((Substituted)pyridin-3-yl)alkyl)-and alkenyl)-tetrahydro-4-hydroxypyran-2-one inhibitors of cholesterol biosynthesis” (Warner-Lambert Company, priority 1988, dated 1990)

Tested on: Cholesterol Synthesis
Assay: AICS screen: inhibition of cholesterol synthesis in rats (plasma [14C]cholesterol after sodium [1-14C]-acetate)
Format: in vivo
Conditions: single dose, oral gavage, male Sprague-Dawley rats fed 5% cholestyramine, acetate one hour after drug, blood after 50 minutes; for change in vivo at 1 mg/kg / change in vivo at 1.5 mg/kg: Rattus norvegicus, 50 min
Experimental: The ability of compounds of the present invention to inhibit the biosynthesis of cholesterol was also measured by a method (designated AICS screen) which utilizes the procedure described by A. W. Alberts et al, Proc. Natl. Acad. Sci., (1980), 77, pp 3957-3961.
In this method male Sprague-Dawley rats (200 g body weight) previously fed 5% cholestyramine for three days were randomly divided into groups (N=5/group) and given a single dose of vehicle (controls) or compound by an oral gavage at the indicated doses. One hour after drug dosing, all rats were injected intraperitoneally with sodium[1-^14 C]-acetate (18.75 μCi/rat in 0.2 ml saline). After 50 minutes, blood samples were taken, plasma obtained by centrifugation, and plasma [^14 C]cholesterol measured after saponification and extraction.

SMILES	change in vivo at 1 mg/kg (1.0 mg/kg) [%]	further results
CCc1cc(-c2ccc(F)cc2)c(/C=C/[C@@H]2C[C@@H](O)CC(=O)O2)c(CC)n1 (relative stereo) [Example 26, [4α,6β(E)]-6-[2-[2,6-diethyl-4(4-fluorophenyl)-3-pyridinyl]ethenyl]tetrahydro-4-hydroxy-2H-pyran-2-one]	-60	
O=C1C[C@H](O)C[C@@H](/C=C/c2c(-c3ccc(F)cc3)cc(C(F)F)nc2C(F)(F)F)O1 (relative stereo) [Example 24]	-54	
C=Cc1c(C)nc(C(C)C)c(/C=C/[C@@H]2C[C@@H](O)CC(=O)O2)c1-c1ccc(F)cc1 (relative stereo) [Example 40, [4α,6β(E)]-6-[2-[5-ethenyl-4-(4-fluorophenyl)-6-methyl-2-(1-methylethyl)-3-pyidinyl]ethenyl]tetrahydro-4-hydroxy-2H-pyran-2-one]	-68	
COC(=O)c1c(C(C)C)nc(C)c(/C=C/[C@@H]2C[C@@H](O)CC(=O)O2)c1-c1ccc(F)cc1 (relative stereo) [Example 9]		change in vivo at 1.5 mg/kg: -55%
CC(C)c1nc(-c2ccccc2)cc(-c2ccc(F)cc2)c1/C=C/[C@@H]1C[C@@H](O)CC(=O)O1 (relative stereo) [Example 30, [4α,6β(E)]-6-[2-[4-(4-fluorophenyl)-2-(1-methylethyl)-6-phenyl-3-pyridinyl]ethenyl]tetrahydro-4-hydroxy-2H-pyran-2-one]	-64	
Cc1cc(-c2ccc(F)cc2)c(/C=C/[C@@H]2C[C@@H](O)CC(=O)O2)c(C(F)(F)F)n1 (relative stereo) [Example 22, [4α,6β(E)]-6-[2-[4-(4-fluorophenyl)-6-methyl-2-(trifluoromethyl)-3-pyridinyl]ethenyl]tetrahydro-4-hydroxy-2H-pyran-2-one]	-59	
CCc1nc(CC)c(C(=O)OC)c(-c2ccc(F)cc2)c1/C=C/[C@@H]1C[C@@H](O)CC(=O)O1 (relative stereo) [Example 34, [2α,4β(E)]-2,6-diethyl-4-(4-fluorophenyl)-5-[2-(tetrahydro-4-hydroxy-6-oxo-2H-pyran-2-yl)ethenyl]-3-pyridinecarboxylic acid, methyl ester]	-57	
CC(C)c1cc(-c2ccc(F)cc2)c(/C=C/[C@@H]2C[C@@H](O)CC(=O)O2)c(C(C)C)n1 (relative stereo) [Example 15]	-55	
COc1c(C)nc(C(C)C)c(/C=C/[C@@H]2C[C@@H](O)CC(=O)O2)c1-c1ccc(F)cc1 (relative stereo) [Example 38, [4α,6β(E)]-6-[2-[4-(4-fluorophenyl)-5-methoxy-6-methyl-2-(1-methylethyl)-3-pyridinyl]ethenyl]tetrahydro-4-hydroxy-2H-pyran-2-one]	-67	
Cc1cc(C)c(/C=C/[C@@H]2C[C@@H](O)CC(=O)O2)c(-c2ccc(F)cc2)n1 (relative stereo) [Example 28, [4α,6β(E)]-6-[2-[2-(4-fluorophenyl)-4,6-dimethyl-3-pyridinyl]ethenyl]tetrahydro-4-hydroxy-2H-pyran-2-one]		change in vivo at 1.5 mg/kg: -64%
CCCNC(=O)c1c(C(C)C)nc(C(C)C)c(/C=C/C2CC(O)CC(=O)O2)c1-c1ccc(F)cc1 (stereo not drawn) [Example 32, [2α,4α(E)]-4-(4-fluorophenyl)-2,6-bis(1-methylethyl)-n-propyl-5-[2-(tetrahydro-4-hydroxy-6-oxo-2H-pyran-2-yl)ethenyl]-3-pyridinecarboxamide]		% Inhibition of Cholesterol Synthesis (1.0 mg/kg): -25%
Cc1cc(-c2ccc(F)cc2)c(/C=C/[C@@H]2C[C@@H](O)CC(=O)O2)c(C(C)C)[n+]1[O-] (relative stereo) [Example 42, 4α,6β(E)-6-[2-[4-(4-fluorophenyl)-6-methyl-2-(1-methylethyl)-3-pyridinyl]ethenyl]tetrahydro-4-hydroxy-2H-pyran-2-one, N-oxide]	-69	
CCOC(=O)c1c(C)nc(C)c(/C=C/[C@@H]2C[C@@H](O)CC(=O)O2)c1-c1ccc(F)cc1 (relative stereo) [Example 11, [4α,6β-(E)]-4-(4-fluorophenyl)-2,6-dimethyl-5-[2-(tetrahydro-4-hydroxy-6-oxo-2H-pyran-2-yl)ethenyl]-, ethyl ester, 3-pyridinecarboxylic acid]		change in vivo at 1.5 mg/kg: -41%
